For data set [1] the following is noted: buffer, pH 6.5.
Description: The C-terminal unprotected peptide (1.5 equivalent) and the N-terminal peptide (1 equivalent) were solubilized in freshly degassed 6M guanidinium hydrochloride, 0.2 M sodium phosphate, pH 7.5 buffer at a concentration of 2.5 mM each. After addition of 1% thiophenol and 1% benzyl mercaptan the pH was adjusted to 6.5 (or different thiols concentration or pH as reported in the text). Aliquots of this solution were treated with equal volumes of BME for 5 minutes and then with 10% TCEP for 10 minutes to completely hydrolyse any thiol adduct before HPLC analysis. Ligation reaction analysis was conducted using a gradient starting from 10% of B with a gradient slope of 1.66% of B per minute. Base line resolution of the different isomerization product was achieved using a gradient starting at 20% of B and with an increase of 0.33% B.
For data set [2], the target named is SV8 protease (Staphylococcus aureus, UniProt P0C1U8). To be noted: 1 unit/20 μg, 24 hours at 37° C.
Description: Peptides were digested using the enzyme SV8 protease. The peptides, solubilized to a final 5 mM concentration in 0.1 M NH4HCO3 and 0.3% BME, were digested by adding the enzyme solution (250 unit/ml), keeping the enzyme/peptide ratio of 1 unit/20 μg. The reaction was stopped after 24 hours at 37° C. by treatment with equal volumes of 10% TCEP, and extent of digestion assayed by RP-HPLC. Digested fragments were characterized by ESI-MS.

Residues, ends and D or L forms follow the SMILES beside them. Primed or numbered codes have the meaning given here. No end group written: not given here. *: point of attachment. diMeOPac = (2',4'-dimethoxy)phenacyl ester on the Asp side chain, COc1ccc(C(=O)C*)c(OC)c1; Fmoc = O=C(OCC1c2ccccc2-c2ccccc21)*; X1 = CC(O*)C(=O)c1ccccc1; OPac′ = phenacyl ester; X2 = ClC(Cl)(Cl)CO*

Sequence of SV8 protease (P0C1U8 69-336): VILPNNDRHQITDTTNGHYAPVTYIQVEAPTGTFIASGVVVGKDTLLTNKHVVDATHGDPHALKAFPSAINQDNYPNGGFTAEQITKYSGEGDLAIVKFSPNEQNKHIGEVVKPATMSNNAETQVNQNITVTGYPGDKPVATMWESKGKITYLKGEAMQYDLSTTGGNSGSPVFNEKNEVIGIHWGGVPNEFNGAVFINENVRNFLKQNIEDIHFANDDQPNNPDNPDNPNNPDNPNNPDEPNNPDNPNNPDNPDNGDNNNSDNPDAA

`CC(=O)N[C@@H](CC(=O)OC(C)C(=O)c1ccccc1)C(=O)N[C@@H](Cc1ccc(O)cc1)C(=O)N[C@@H](C)C(=O)N[C@@H](CCCCN)C(=O)N[C@@H](Cc1ccc(O)cc1)C(=O)N[C@@H](C)C(=O)N[C@@H](CCCCN)C(=O)N[C@@H](CC(C)C)C(=O)O` (some centres unmarked) [OMop, Ac-D(OMop)YAKYAKL] (Ac-D(X1)YAKYAKL-OH): in data set [1], the “Hydrolysis t1/2” value is 9.9 h and the “half-life in the ligation condition” value is 500 h. Regarding `CC(C)C[C@H](NC(=O)[C@H](CCCCN)NC(=O)[C@H](C)NC(=O)[C@H](Cc1ccc(O)cc1)NC(=O)[C@H](CCCCN)NC(=O)[C@H](C)NC(=O)[C@H](Cc1ccc(O)cc1)NC(=O)[C@H](CC(=O)OCC(Cl)(Cl)Cl)NC(=O)OCC1c2ccccc2-c2ccccc21)C(=O)O` [Troc, Fmoc-D(Troc)YAKYAKL] (Fmoc-D(X2)YAKYAKL-OH), in data set [1], the “Hydrolysis t1/2” value worked out at 1.5 h and the “half-life in the ligation condition” value is given as “less than 2 hours”. For the compound LYRAE(γ)CSYRFL [product 7], the “digestion by SV8 protease” value in data set [2] is listed as “unaffected by the enzyme”. Take Ac-D(OPac)YAKYAKL (Ac-D(OPac′)YAKYAKL): the “Hydrolysis t1/2” value in data set [1] was found to be 1.2 h.

For LYRAD(β)CSYUFL [product 6], in data set [2], the “digestion by SV8 protease” value is “unaffected by the enzyme”. Ac-D(diMeOPac)YAKYAKL [OdiMeOPac]: the “Hydrolysis t1/2” value in data set [1] amounted to 3.8 h.
